Experimental data taken from PubChem BioAssay AID330 (DTP/NCI, 2004).
Toxic doses and inconclusive results are not listed.

Test system: P388 leukemia ip, CD2F1 mice, survival T/C
Assay: NCI In Vivo Anticancer Drug Screen. Data for tumor model P388 Leukemia (intraperitoneal) in CD2F1 (CDF1) mice
Conditions: endpoint: median survival time, higher = longer survival
How it was run: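 Mice carrying the transplanted tumor received test compound or vehicle. Survival was recorded in each group, and the value is the treated-group measurement divided by that of the vehicle-treated control group.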

[1] = dose: 25.0 mg/kg/injection, schedule: Q01DX009 (ip), vehicle: saline with Tween-80
[2] = dose: 50.0 mg/kg/injection, schedule: Q01DX009 (ip), vehicle: saline with Tween-80
[3] = dose: 100.0 mg/kg/injection, schedule: Q01DX009 (ip), vehicle: saline with Tween-80
[4] = dose: 60.0 mg/kg/injection, schedule: Q01DX005 (ip), vehicle: saline with Tween-80
[5] = dose: 60.0 mg/kg/injection, schedule: Q01DX005 (ip), vehicle: Klucel (hydroxypropylcellulose) (HPC)
[6] = dose: 120.0 mg/kg/injection, schedule: Q01DX005 (ip), vehicle: Klucel (hydroxypropylcellulose) (HPC)
[7] = dose: 200.0 mg/kg/injection, schedule: Q01DX009 (ip), vehicle: saline with Tween-80

`c1ccc(C2=NNC(c3ccccc3)=NN2)cc1` was tested, and the T/C (dose: 0.78 mg/kg/injection, schedule: Q01DX009 (ip), vehicle: saline with Tween-80) was 107 % of control, the T/C (dose: 1.56 mg/kg/injection, schedule: Q01DX009 (ip), vehicle: saline with Tween-80) was 95 % of control and the T/C (dose: 3.12 mg/kg/injection, schedule: Q01DX009 (ip), vehicle: saline with Tween-80) was 89 % of control. The T/C [1] was 93 % of control, the T/C [2] was 100 % of control and the T/C (dose: 50.0 mg/kg/injection, schedule: Q04DX003 (ip), vehicle: Klucel (hydroxypropylcellulose) (HPC)) was 97 % of control. For the same molecule, the T/C [3] was 90 % of control, the T/C (dose: 100.0 mg/kg/injection, schedule: Q04DX003 (ip), vehicle: Klucel (hydroxypropylcellulose) (HPC)) was 104 % of control and the T/C (dose: 200.0 mg/kg/injection, schedule: Q04DX003 (ip), vehicle: Klucel (hydroxypropylcellulose) (HPC)) was 97 % of control. The T/C (dose: 400.0 mg/kg/injection, schedule: Q04DX003 (ip), vehicle: Klucel (hydroxypropylcellulose) (HPC)) was 94 % of control.

`CC1=CC2=C(C(N)=O)C(=O)OC2(C)C(c2ccccc2)C1` (stereo not given) was tested, and the T/C [4] was 101 % of control, the T/C (dose: 120.0 mg/kg/injection, schedule: Q01DX005 (ip), vehicle: saline with Tween-80) was 101 % of control and the T/C (dose: 240.0 mg/kg/injection, schedule: Q01DX005 (ip), vehicle: saline with Tween-80) was 100 % of control.

In the case of `O=NN(CCF)C(=O)Oc1cc(Cl)c(Cl)cc1Cl`, the T/C (dose: 12.0 mg/kg/injection, schedule: Q01DX005 (ip), vehicle: saline with Tween-80) is reported as 170 % of control and the T/C (dose: 25.0 mg/kg/injection, schedule: Q01DX005 (ip), vehicle: saline with Tween-80) is reported as 202 % of control.

In the case of `O=C1c2cc([N+](=O)[O-])cc3cc([N+](=O)[O-])cc(c23)C(=O)N1CCNCCNCCNCCN1C(=O)c2cc([N+](=O)[O-])cc3cc([N+](=O)[O-])cc(c23)C1=O`, the T/C (dose: 12.5 mg/kg/injection, schedule: Q04DX002 (ip), vehicle: saline with Tween-80) is reported as 112 % of control, the T/C (dose: 25.0 mg/kg/injection, schedule: Q04DX002 (ip), vehicle: saline with Tween-80) is reported as 121 % of control and the T/C (dose: 50.0 mg/kg/injection, schedule: Q04DX002 (ip), vehicle: saline with Tween-80) is reported as 122 % of control.

`CC(=O)c1cc2ccccc2c2ccccc12` was tested, and the T/C (dose: 50.0 mg/kg/injection, schedule: Q01DX005 (ip), vehicle: saline with Tween-80) was 98 % of control, the T/C (dose: 100.0 mg/kg/injection, schedule: Q01DX005 (ip), vehicle: saline with Tween-80) was 98 % of control and the T/C (dose: 200.0 mg/kg/injection, schedule: Q01DX005 (ip), vehicle: saline with Tween-80) was 96 % of control.

In the case of `c1cnc(Nc2c3ccccc3nc3ccccc23)nc1`, the T/C (dose: 100.0 mg/kg/injection, schedule: Q04DX002 (ip), vehicle: saline with Tween-80) is reported as 103 % of control, the T/C (dose: 200.0 mg/kg/injection, schedule: Q04DX002 (ip), vehicle: saline with Tween-80) is reported as 103 % of control and the T/C (dose: 400.0 mg/kg/injection, schedule: Q04DX002 (ip), vehicle: saline with Tween-80) is reported as 94 % of control.

`C=C1C(=O)C23C(OC(=O)CCCCCCCCCCCCCCC)C1CCC2C12COC3(O)C(O)C1C(C)(C)CCC2O` (stereo not given) was tested, and the T/C (dose: 3.75 mg/kg/injection, schedule: Q01DX009 (ip), vehicle: saline with Tween-80) was 101 % of control, the T/C (dose: 7.5 mg/kg/injection, schedule: Q01DX009 (ip), vehicle: saline with Tween-80) was 104 % of control and the T/C (dose: 15.0 mg/kg/injection, schedule: Q01DX009 (ip), vehicle: saline with Tween-80) was 103 % of control. The T/C (dose: 30.0 mg/kg/injection, schedule: Q01DX009 (ip), vehicle: saline with Tween-80) was 99 % of control.

In the case of `COc1nc(Cl)cn(C)c1=O`, the T/C (dose: 15.0 mg/kg/injection, schedule: Q01DX005 (ip), vehicle: saline with Tween-80) is reported as 101 % of control, the T/C (dose: 30.0 mg/kg/injection, schedule: Q01DX005 (ip), vehicle: saline with Tween-80) is reported as 98 % of control and the T/C [5] is reported as 95 % of control. The T/C [4] was 107 % of control and the T/C [6] was 106 % of control.

For `S=P(OC1CC2CCC1C2)(c1ccccc1)c1ccccc1` (stereo not given), the T/C [2] was 100 % of control, the T/C [3] was 103 % of control and the T/C [7] was 106 % of control.

For `CCC(=O)N=c1sc(SCc2ccccc2)nn1C(=O)SC` (tested in a mixture with another compound), the T/C [5] was 95 % of control, the T/C [6] was 98 % of control and the T/C (dose: 240.0 mg/kg/injection, schedule: Q01DX005 (ip), vehicle: Klucel (hydroxypropylcellulose) (HPC)) was 90 % of control.

For `CC(C)=CCC/C(C)=C\CCl`, the T/C [1] was 107 % of control, the T/C [2] was 98 % of control and the T/C [3] was 87 % of control. For the same molecule, the T/C [7] was 90 % of control.

`CCCCC/C(=C/C=C/c1ccc(Cl)cc1)CN(C)C` was tested, and the T/C (dose: 50.0 mg/kg/injection, schedule: Q01DX009 (ip), vehicle: Klucel (hydroxypropylcellulose) (HPC)) was 111 % of control and the T/C (dose: 100.0 mg/kg/injection, schedule: Q01DX009 (ip), vehicle: Klucel (hydroxypropylcellulose) (HPC)) was 110 % of control.
